Like-named read-outs stand apart in the source and are kept apart here.
Experiments:
Assay type in all cases: cell-based
[1] = molecular target: T1, ΔF508-CFTR (Homo sapiens, UniProt P13569, DEL508-508); assay: CFTR cell surface levels using HRP-tagged ΔF508-CFTR expressing CFBE cells, intrinsic corrector capacity; parameters: % Activation: concentration or dose not given beside the values; details: HRP-tagged ΔF508-CFTR expressing CFBE41o- cells, compound alone (intrinsic corrector capacity), 20 hours at 33° C.; for EC50: read-out: EC50
T1 construct: host or cells: CFBE41o-, doxycycline-inducible
In short: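 Surface ΔF508-CFTR was measured as HRP chemiluminescence from an extracellular-loop-4 tag, expressed as percent activity between DMSO and a […] corrector control.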

[2] = molecular target: T1, ΔF508-CFTR; assay: CFTR cell surface levels using HRP-tagged ΔF508-CFTR expressing CFBE cells, in the presence of a co-corrector; details: HRP-tagged ΔF508-CFTR CFBE cells, in the presence of 3 μM co-corrector; for EC50: read-out: EC50
In short: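 Chemiluminescent read-out of surface HRP (15 min, dark) after PBS washes. Activity is normalized as 100×(sample−DMSO)/(3 μM co-corrector alone−DMSO).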

[3] = molecular target: T2, CFTR ΔF508 (Homo sapiens, UniProt P13569, DEL508-508); assay: Chronic TECC assay, primary bronchial epithelial cells of CF patients homozygous for CFTR ΔF508 (corrector, co-corrector and potentiator); details: chronic TECC; for % Activity at 3 μM (AUC**): test compound at 3 μM; for % Activity at 1 μM (AUC**) / % Activity at 1 μM (Ieq*): test compound at 1 μM
T2 construct: bronchial epithelial cells isolated from CF patients homozygous for the CFTR ΔF508 mutation; McGill University; Asterand; University of North Carolina hAEC-CF; host or cells: primary human bronchial epithelial cells from CF patients homozygous for ΔF508, differentiated at air-liquid interface
Procedure: Primary Bronchial Epithelial Cells Protocol
The TECC (Tranepithelial Clamp Circuit, EP-design) assay measures the functionality of the cystic fibrosis Transmembrane Conductance regulator (CFTR) by measuring the short circuit current (Isc) generated over the basolateral and apical membrane of lung epithelial cells. In TECC the transepithelial potential PD and transepithelial resistance (Rt) are measured in an open circuit and transformed to Ieq using Ohm's law. 24 Wells can be measured simultaneously allowing a higher throughput compared to Ussing chambers.
For this purpose, bronchial epithelial cells isolated from CF patients homozygous for the CFTR ΔF508 mutation (hAEC-CF, Epithelix, Geneva, Switzerland; McGill University, Montreal, Qc; Asterand, Detroit, Mich.; University of North Carolina, Chapel Hill, N.C.) are plated on type IV collagen-coated Transwell® supports (Costar).
For electrophysiological recording of the “chronic” experiments, the human airway epithelia are mounted in the TECC heating plate for electrophysiological measurement and kept at 37° C. The epithelia are bathed in a NaCl-Ringer solution (120 mM NaCl, 25 mM NaHCO3, 1.2 mM CaCl2, 1.2 mM MgCl2, 0.8 mM KH2PO4, 0.8 mM K2HPO4, pH 7.4, 5 mM glucose) on both the basolateral and apical sides. Test compounds (corrector, co-corrector, 4-[(2R,4R)-4-({[1-(2,2-difluoro-1,3-benzodioxol-5-yl)cyclopropyl]carbonyl}amino)-7-(difluoromethoxy)-3,4-dihydro-2H-chromen-2-yl]benzoic acid, and potentiator, N-(3-carbamoyl-5,5,7,7-tetramethyl-4,7-dihydro-5H-thieno[2,3-c]pyran-2-yl)-1H-pyrazole-5-carboxamide), are re-added to the recording solution prior to measurement. […] Apical amiloride is used to inhibit the endogenous ENaC currents while forskolin is applied on both apical and basolateral side to stimulate CFTR. Measurements are done during a 20 minute timeframe with recordings every 2 minutes. The increase in Ieq is used as a measure for the increased CFTR activity, EC50 values can be generated by measuring impact of different concentrations of compound on Ieq on primary cells, for this purpose each transwell is treated with a different compound concentration. […] Raw data were normalized to percentage activity values using the equation: 100×(Sample−Negative control)/(Positive control−Negative Control).

[4] = Ieq = calculations based on the maximum current, read-out: EC50 (nM) (Ieq*)
[5] = AUC = full area under the curve upon forskolin stimulation
[6] = AUC = full area under the curve upon forskolin stimulation, read-out: EC50 (nM) (AUC**)
[7] = Ieq = calculations based on the maximum current

T1 sequence (P13569 with tags, fused parts or gaps DEL508-508): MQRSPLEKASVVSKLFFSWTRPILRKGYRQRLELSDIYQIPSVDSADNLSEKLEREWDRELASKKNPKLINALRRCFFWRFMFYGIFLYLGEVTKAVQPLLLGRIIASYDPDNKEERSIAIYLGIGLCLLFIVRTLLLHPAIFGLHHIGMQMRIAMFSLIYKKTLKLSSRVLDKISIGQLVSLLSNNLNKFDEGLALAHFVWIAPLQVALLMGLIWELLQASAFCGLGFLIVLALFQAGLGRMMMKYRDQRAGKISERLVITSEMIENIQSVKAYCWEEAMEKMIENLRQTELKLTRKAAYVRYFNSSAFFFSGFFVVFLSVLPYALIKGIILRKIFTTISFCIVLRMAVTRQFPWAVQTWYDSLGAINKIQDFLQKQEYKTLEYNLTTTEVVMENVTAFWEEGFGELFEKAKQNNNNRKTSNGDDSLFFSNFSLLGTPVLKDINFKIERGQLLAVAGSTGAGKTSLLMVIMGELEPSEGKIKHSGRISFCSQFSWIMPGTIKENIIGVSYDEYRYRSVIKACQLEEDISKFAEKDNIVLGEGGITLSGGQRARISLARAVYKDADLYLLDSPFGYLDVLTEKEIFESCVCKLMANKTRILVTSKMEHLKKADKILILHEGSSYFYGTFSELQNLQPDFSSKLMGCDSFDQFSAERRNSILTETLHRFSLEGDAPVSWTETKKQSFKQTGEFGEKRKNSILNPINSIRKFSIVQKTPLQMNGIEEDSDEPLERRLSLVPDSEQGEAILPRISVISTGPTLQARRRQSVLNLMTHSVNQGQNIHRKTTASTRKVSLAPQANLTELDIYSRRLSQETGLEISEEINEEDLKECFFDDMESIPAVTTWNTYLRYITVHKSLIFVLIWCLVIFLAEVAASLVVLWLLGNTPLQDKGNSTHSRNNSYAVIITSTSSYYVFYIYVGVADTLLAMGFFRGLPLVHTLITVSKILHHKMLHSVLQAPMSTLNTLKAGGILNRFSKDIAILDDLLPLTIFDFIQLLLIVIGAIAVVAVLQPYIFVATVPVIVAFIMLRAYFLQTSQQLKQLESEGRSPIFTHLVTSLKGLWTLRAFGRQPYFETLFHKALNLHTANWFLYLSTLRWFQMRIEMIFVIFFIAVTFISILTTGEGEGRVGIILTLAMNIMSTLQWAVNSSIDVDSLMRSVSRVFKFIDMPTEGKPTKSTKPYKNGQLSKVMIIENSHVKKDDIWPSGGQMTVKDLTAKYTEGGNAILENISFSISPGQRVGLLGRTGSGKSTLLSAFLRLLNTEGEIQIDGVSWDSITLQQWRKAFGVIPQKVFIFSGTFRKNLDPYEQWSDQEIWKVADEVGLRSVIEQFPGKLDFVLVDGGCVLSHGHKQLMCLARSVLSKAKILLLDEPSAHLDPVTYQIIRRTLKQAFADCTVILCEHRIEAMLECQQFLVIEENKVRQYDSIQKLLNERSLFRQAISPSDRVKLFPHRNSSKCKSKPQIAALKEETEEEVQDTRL
T2 sequence (P13569 with tags, fused parts or gaps DEL508-508): as above

SMILES | % Activation [1] | EC50 [1] | % Activation [2] | EC50 [2] | EC50 [3, 4] | % Activity at 3 μM (AUC**) [3, 5] | EC50 [3, 6] | % Activity at 1 μM (AUC**) [3, 5] | % Activity at 1 μM (Ieq*) [3, 7]
CC(C)N1CCN(C2CCN(c3cc(C(=O)NS(=O)(=O)N(C)C)nc4c3c(C3CCC3)nn4-c3ccc(F)cc3)CC2)CC1 [Compound 382, 3-cyclobutyl-N-(dimethylsulfamoyl)-1-(4-fluorophenyl)-4-{4-[4-(propan-2-yl)piperazin-1-yl]piperidin-1-yl}-1H-pyrazolo[3,4-b]pyridine-6-carboxamide] | 305.9% | 261 nM | 500.01% | 158 nM | 205 nM | 347% | – | – | –
COCC1CCN(c2cc(C(=O)NS(=O)(=O)CCN3CCOCC3)nc3c2c(C2CCC2)nn3-c2ccccc2)CC1 [Compound 267, 3-cyclobutyl-4-[4-(methoxymethyl)piperidin-1-yl]-N-[2-(morpholin-4-yl)ethanesulfonyl]-1-phenyl-1H-pyrazolo[3,4-b]pyridine-6-carboxamide] | 274.8% | 172 nM | 433% | 57.1 nM | – | – | 130 nM | – | –
COC(=O)N1CCC2CN(c3cc(C(=O)NS(C)(=O)=O)nc4c3c(C3CCC3)nn4-c3ccccc3)CCC21 (stereo not shown) [Compound 215, methyl 5-{3-cyclobutyl-6-[(methanesulfonyl)carbamoyl]-1-phenyl-1H-pyrazolo[3,4-b]pyridin-4-yl}octahydro-1H-pyrrolo[3,2-c]pyridine-1-carboxylate] | 374.57% | 274 nM | 569.35% | 47.9 nM | – | – | 45 nM | 320% | –
CN(C)C[C@@H](F)C1CCN(c2cc(C(=O)NS(C)(=O)=O)nc3c2c(C2CCC2)nn3-c2ccccc2)CC1 [Compound 219, 3-cyclobutyl-4-{4-[(1S)-2-(dimethylamino)-1-fluoroethyl]piperidin-1-yl}-N-(methanesulfonyl)-1-phenyl-1H-pyrazolo[3,4-b]pyridine-6-carboxamide] | 381.1% | 764 nM | 524.4% | 230 nM | – | – | – | 298.20% | –
CS(=O)(=O)NC(=O)c1cc(N2CCC(OC3CCCCC3)CC2)c2c(C3CCC3)nn(-c3ccccc3)c2n1 [Compound 229, 3-cyclobutyl-4-[4-(cyclohexyloxy)piperidin-1-yl]-N-(methanesulfonyl)-1-phenyl-1H-pyrazolo[3,4-b]pyridine-6-carboxamide] | 174.2% | 414 nM | 418.65% | 366 nM | – | – | 20 nM | 430% | –
CC(C)c1nn(-c2ccc(F)cc2)c2nc(C(=O)NS(C)(=O)=O)cc(N3CCC4(CCO4)CC3)c12 [Compound 177, 1-(4-fluorophenyl)-N-(methanesulfonyl)-4-(1-oxa-7-azaspiro[3.5]nonan-7-yl)-3-(propan-2-yl)-1H-pyrazolo[3,4-b]pyridine-6-carboxamide] | 99.405% | 830 nM | 263.9% | 385 nM | – | – | > 100 nM | 419.90% | –
C[C@@H](C1CCN(c2cc(C(=O)NS(=O)(=O)N(C)C)nc3c2c(C2CCC2)nn3-c2ccc(F)cc2)CC1)N1CCOCC1 [Compound 480, 3-cyclobutyl-N-(dimethylsulfamoyl)-1-(4-fluorophenyl)-4-{4-[(1S)-1-(morpholin-4-yl)ethyl]piperidin-1-yl}-1H-pyrazolo[3,4-b]pyridine-6-carboxamide] | 322.45% | 136 nM | 545.77% | 87.1 nM | – | – | – | 548.575% | –
CC(C)Oc1nn(C2CCCCC2)c2nc(C(=O)NS(=O)(=O)N(C)C)cc(-c3ccc(C(=O)N4CCC(N(C)C)CC4)cc3)c12 [Compound 546, 1-cyclohexyl-4-{4-[4-(dimethylamino)piperidine-1-carbonyl]phenyl}-N-(dimethylsulfamoyl)-3-[(propan-2-yl)oxy]-1H-pyrazolo[3,4-b]pyridine-6-carboxamide] | 138.05% | 325 nM | 335.3% | 182 nM | – | 282.0317% | – | – | –
CC(C)c1nn(-c2cccc(N3CCCC3)c2)c2nc(C(=O)NS(C)(=O)=O)cc(-c3ccc(N(C)C4CCOCC4)cc3)c12 [Compound 110, N-(methanesulfonyl)-4-{4-[methyl(oxan-4-yl)amino]phenyl}-3-(propan-2-yl)-1-[3-(pyrrolidin-1-yl)phenyl]-1H-pyrazolo[3,4-b]pyridine-6-carboxamide] | 451.8% | 358 nM | 665.7% | 336 nM | < 30 nM | – | – | – | 170%
CCS(=O)(=O)NC(=O)c1cc(-c2ccc(N3CCOCC3)cc2)c2c(C)nn(-c3ccc(F)cc3F)c2n1 [Compound 113, 1-(2,4-difluorophenyl)-N-(ethanesulfonyl)-3-methyl-4-[4-(morpholin-4-yl)phenyl]-1H-pyrazolo[3,4-b]pyridine-6-carboxamide] | 262.33% | 464 nM | 455.63% | 235 nM | 32 nM | – | – | – | 310%
CC(C)c1nn(-c2cccc(N3CCOCC3)c2)c2nc(C(=O)NS(C)(=O)=O)cc(-c3ccc(N(C)C4CCOCC4)nc3)c12 [Compound 87, N-(methanesulfonyl)-4-{6-[methyl(oxan-4-yl)amino]pyridin-3-yl}-1-[3-(morpholin-4-yl)phenyl]-3-(propan-2-yl)-1H-pyrazolo[3,4-b]pyridine-6-carboxamide] | 422.84% | 409 nM | 623.62% | 456 nM | < 30 nM | – | – | – | 150%
CC(C)c1nn(-c2ccc(F)cc2)c2nc(C(=O)NS(C)(=O)=O)cc(N3CCC(C#N)CC3)c12 [Compound 240, 4-(4-cyanopiperidin-1-yl)-1-(4-fluorophenyl)-N-(methanesulfonyl)-3-(propan-2-yl)-1H-pyrazolo[3,4-b]pyridine-6-carboxamide] | 176.67% | 377 nM | 312.8% | 139 nM | – | – | 140 nM | 288.71% | –
CN(C)S(=O)(=O)NC(=O)c1cc(N2CCC(CN3CCOCC3)CC2)c2c(C3CCC3)nn(-c3ccc(F)cc3)c2n1 [Compound 409, 3-cyclobutyl-N-(dimethylsulfamoyl)-1-(4-fluorophenyl)-4-{4-[(morpholin-4-yl)methyl]piperidin-1-yl}-1H-pyrazolo[3,4-b]pyridine-6-carboxamide] | 245.4% | 155 nM | 481.1% | 108 nM | – | – | 150 nM | 420% | –
COCCS(=O)(=O)NC(=O)c1cc(N2CCC(COC)CC2)c2c(C(C)C)nn(C3CCCCC3)c2n1 [Compound 251, 1-cyclohexyl-N-(2-methoxyethanesulfonyl)-4-[4-(methoxymethyl)piperidin-1-yl]-3-(propan-2-yl)-1H-pyrazolo[3,4-b]pyridine-6-carboxamide] | 273.3% | 634 nM | 488.7% | 367 nM | – | – | – | 336.34% | –
